# Experimental data reported in article PMC10957775, “Integrated chemical characterization, metabolite profiling, and pharmacokinetics analysis of Zhijun Tangshen Decoction by UPLC-Q/TOF-MS” (Frontiers in Pharmacology, 2024).
# Experiment: not given
# Design: AUC(0→t) / Cmax: unit not given beside the values
# Conditions: rat, in vivo
AUC(0→t),Cmax,MRT(0→t),Tmax,t1/2,SMILES
1.05±0.08,0.23±0.06,6.76±1.16,0.92±0.95,7.53±1.65,"Cc1cc(O[C@@H]2O[C@H](CO)[C@@H](O)[C@H](O)[C@H]2O)cc2oc(CC(C)O)cc(=O)c12 (stereo partly drawn) [P7, 2-(2-Hydroxypropyl)-5-methyl-7-hydroxychromone-7-O-β-D-glucoside]"
269.12±44.99,44.36±4.60,5.85±0.84,5.33±2.31,7.21,"CC(CO)C1=C(O)c2ccc3c(c2C(=O)C1=O)CCCC3(C)C (centres unmarked) [P31, Tanshinone V]"
49952.22±8257.37,15105.85±4254.91,4.30±0.34,0.67±0.29,3.38±0.96,"COc1cccc2c1C(=O)c1c(O)cc(C)cc1C2=O [P20, 8-Methyl chrysophanol]"
1.99±0.28,0.80±0.39,4.70±1.01,0.92±0.95,3.56±1.89,"COc1cc2c(=O)c(-c3ccc(O)cc3)coc2cc1O[C@@H]1O[C@H](CO)[C@@H](O)[C@H](O)[C@H]1O [P9, Glycitin]"

# Same assay, conditions: rat, in vivo, po
AUC (in words),Tmax [h],elimination half-life (t1/2) [h],pharmacokinetic behavior compared with other prototype compounds and metabolites (in words),Cmax / peak concentration (in words),time to peak (in words),level of exposure in the blood (in words),SMILES
greater,≤ 3.5,> 7.5,better pharmacokinetic behavior,,,,Oc1ccccc1O [M94]
greater,≤ 3.5,> 7.5,better pharmacokinetic behavior,higher peak concentrations,faster time to peak,,Cc1cc(O)c2c(c1)C(=O)c1cccc(O)c1C2=O [M56]
,,,better pharmacokinetic behavior,,,higher level of exposure,"COc1cccc2c1C(=O)c1c(O)cc(C)cc1C2=O [P20, 8-Methyl chrysophanol]"
greater,,,,,,,Cc1cc(O)c2c(c1)C(=O)c1cc(O)ccc1C2=O [M61]

# Experiment: Multi-compound pharmacokinetics of ZJTSD in rat serum, semi-quantitative UPLC-Q/TOF-MS (peak area ratio versus time, non-compartmental)
# Conditions: male, Sprague-Dawley, rat, serum (hepatic portal vein blood), po, 1 mL/100 g body weight
# Experimental: Thirty male Sprague–Dawley rats (200 ± 20 g) were purchased from the Nanjing Qinglongshan Experimental Animal Center (Nanjing, China). […] All rats were divided randomly into two groups: ZJTSD-dosed group (n = 27) and control group (n = 3). The ZJTSD-dosed group was given the ZJTSD solution by gavage (i.g.) at a dosage of 1 mL/100 g body weight of rats, and the control group was given 0.9% normal saline at the same dose, twice a day for a week. After the last administration, the blood was collected from the hepatic portal vein at 15 min, 30 min, 1 h, 2 h, 4 h, 6 h, 8 h, 12 h, and 24 h, and 3 rats were taken at each time point.
# The blood samples of rats were centrifuged at 4,000 rpm for 10 min to obtain the serum. The serum sample (1 mL) was processed with a 3-fold volume using methanol for protein precipitation, with epicoprostanol serving as the internal standard (digoxin and clarithromycin). After vortexing for 3 min, the mixture was centrifuged at 18,000 rpm for 10 min. Subsequently, the supernatant was evaporated at 45°C using a vacuum concentrator. After evaporating the solvent, 150 μL of methanol/water (1:1, v/v) was added, vortexed, sonicated, and then centrifuged at 18,000 rpm for 10 min at 4°C. The resulting supernatant was used for further analysis.
# Liquid chromatographic separation was performed using an AB SCIEX LC™ 2.0 system (AB SCIEX, United States) fitted with an Acquity UPLC BEH C18 column (100 mm × 2.1 mm, 1.7 μm; Ireland). The mobile phases in negative and positive ion modes consisted of 0.1% FA aqueous solution (A) and acetonitrile containing 0.1% FA (B). The program of the elution gradient was set as follows: 0∼5 min, 2%∼35 %B; 5∼7 min, 35%∼50%; 7∼10 min, 50%∼70%; 10∼15 min, 70%∼90 %B; 15∼18 min, 90%∼90 %B; 18∼18.5 min, 90%∼2 %B; and 18.5∼20 min, 2%∼2 %B. The injection volume was 3 µL. The flow rate and the column temperature were set at 0.3 mL/min and 40°C, respectively.
# The mass spectrometry analysis was performed on a SCIEX ZenoTOF™ 7600 system (AB SCIEX, United States), which was calibrated in the high-sensitivity mode for every 10 samples. Spectra were acquired in the TOF/MS-IDA-TOF MS/MS mode with the ESI source operating in positive and negative ion modes. MS parameters were set as follows: ionization source, ESI; spray voltage, 5,500 kV/–4,500 kV; collision energy, 40 V/–40 V; declustering potential, 80 V/–80 V; ion source temperature, 550°C; and scan range, 100–1250 m/z. Data acquisition and processing were performed using SCIEX OS 2.2 and PeakView 2.2.
# A semi-quantitative method was adopted based on the correction peak area versus time ([Wang et al., 2011]; [Lin et al., 2019]). The mean serum time-course profile of pharmacokinetics based on the peak area ratio versus time was plotted using Origin 2018. The kinetic analysis of the peak area ratio (×1,000)–time curve was calculated using Phoenix WinNonlin 8.1 (Phoenix, American) software and illustrated.
MRT last [h],Tmax [h],SMILES,MRT [h]
9.9 ± 0.35,2.75 ± 2.95,"N[C@@H](Cc1c[nH]cn1)C(=O)O [P24, Histidine]",
13.9 ± 1.35,14 ± 9.17,"COC(=O)C1CCC(=O)N1 (centres unmarked) [P33, 5-Oxo-pyrrolidine-2-carboxylic acid methyl ester]",
12.7 ± 0.3,12.1 ± 11.9,"O=Cc1c[nH]c2ccccc12 [P46, Indole-3-carbaldehyde]",
5.29 ± 0.3,1.67 ± 2.02,"Cc1cc(=O)c2c(CC(=O)O)cc(O)cc2o1 [P4, 2-Methyl-5-carboxymethyl-7-hydroxychromone]",
11.8 ± 0.21,12,"O=C1CCCCN1 [P47, 2-Piperidone]",
9.15 ± 0.95,2.75 ± 2.17,"O=C(O)c1ccc(O)cc1 [P41, p-Hydroxybenzoic acid]",
10.2 ± 0.64,10.7 ± 2.31,"C=Cc1ccc(O)c(OC)c1 [P42, 4-Vinyl-2-methoxyphenol]",
4.2 ± 0.25,4.67 ± 1.16,"CC(=O)/C=C/c1ccc(CO)o1 [P51, (E)-4-[5-(Hydroxymethyl)-2-furanyl]-3-butene-2-one]",
3.55 ± 0.57,1.67 ± 2.02,"O=C(O)c1cc(O)c2c(c1)C(=O)c1cccc(O)c1C2=O [P18, Rhein]",
11.1 ± 0.44,0.5,"O=C(O)[C@@H]1CCCN1 [P26, Proline]",
10.8 ± 0.72,2.08 ± 1.88,"COc1cc(-c2coc3cc(O)ccc3c2=O)ccc1O [P10, 7,4'-Dihydroxy-3'-methoxyisoflavone]",
3.23 ± 0.59,0.67 ± 0.29,"Cc1cc2c(cc1O)C(=O)c1ccccc1C2=O [P11, 2-Methyl-3-hydroxyanthraquinone]",
4.23 ± 0.55,0.67 ± 0.29,"CC(=O)Cc1cc(O)cc2oc(C)cc(=O)c12 [P5, 2-Methyl-5-acetonyl-7-hydroxychromone]",
5.15 ± 0.25,1.58 ± 2.1,"O=C(O)/C=C/c1ccccc1 [P36, Cinnamic acid]",

SMILES,MRT last [h],Tmax [h],MRT [h]
"O=c1ccc2cc(O)c(O)cc2o1 [P39, Esculetin]",4.92 ± 0.8,0.33 ± 0.14,
"CCCCCCCCCCCCCCCCCC(=O)OC[C@@H](O)COP(=O)([O-])OCC[N+](C)(C)C [P45, 1-O-Octadecanoyl-sn-glycero-3-phosphocholine]",9.91 ± 0.56,2,9.91

# Same assay, conditions: male, Sprague-Dawley, rat, serum (hepatic portal vein blood), po, 1 mL/100 g body weight, elimination half-life (t1/2), rat hepatic portal vein serum after oral ZJTSD; semi-quantitative peak area ratio
row,SMILES,half-life [h]
1,"CCCCCCCCCCCCCCCCCC(=O)OC[C@@H](O)COP(=O)([O-])OCC[N+](C)(C)C [P45, 1-O-Octadecanoyl-sn-glycero-3-phosphocholine]",21

# Same assay, conditions: male, Sprague-Dawley, rat, serum (hepatic portal vein blood), po, 1 mL/100 g body weight, t1/2, prototype compounds of ZJTSD absorbed into rat serum; mean±SD, n=3
row,half-life [h],SMILES
1,21.1 ± 10.2,"N[C@@H](Cc1c[nH]cn1)C(=O)O [P24, Histidine]"
2,3.14 ± 0.86,"Cc1cc(=O)c2c(CC(=O)O)cc(O)cc2o1 [P4, 2-Methyl-5-carboxymethyl-7-hydroxychromone]"
3,19.4 ± 2.9,"O=C(O)c1ccc(O)cc1 [P41, p-Hydroxybenzoic acid]"
4,4.7 ± 0.9,"O=C(O)c1cc(O)c2c(c1)C(=O)c1cccc(O)c1C2=O [P18, Rhein]"
5,47.1 ± 35.8,"O=C(O)[C@@H]1CCCN1 [P26, Proline]"
6,67.3 ± 4.4,"COc1cc(-c2coc3cc(O)ccc3c2=O)ccc1O [P10, 7,4'-Dihydroxy-3'-methoxyisoflavone]"
7,4.29 ± 2.71,"Cc1cc2c(cc1O)C(=O)c1ccccc1C2=O [P11, 2-Methyl-3-hydroxyanthraquinone]"
8,3.09 ± 0.19,"CC(=O)Cc1cc(O)cc2oc(C)cc(=O)c12 [P5, 2-Methyl-5-acetonyl-7-hydroxychromone]"
9,25.8 ± 26.4,"O=C(O)/C=C/c1ccccc1 [P36, Cinnamic acid]"

row,SMILES,half-life [h]
1,"O=c1ccc2cc(O)c(O)cc2o1 [P39, Esculetin]",4.4 ± 3.9
2,"CCCCCCCCCCCCCCCCCC(=O)OC[C@@H](O)COP(=O)([O-])OCC[N+](C)(C)C [P45, 1-O-Octadecanoyl-sn-glycero-3-phosphocholine]",21.9 ± 6.81

# Same assay, conditions: rat serum after oral ZJTSD
detection in serum / absorbed form,level of exposure in the blood (in words),SMILES
absorbed as prototype compounds,,"O=C(O)c1cc(O)c2c(c1)C(=O)c1cccc(O)c1C2=O [P18, Rhein]"
,higher level of exposure,"Cc1cc2c(cc1O)C(=O)c1ccccc1C2=O [P11, 2-Methyl-3-hydroxyanthraquinone]"

# Same assay, conditions: rat serum after oral ZJTSD; non-compartmental analysis
row,pharmacokinetic behavior compared with other prototype compounds and metabolites (in words),SMILES
1,better pharmacokinetic behavior,"O=C(O)c1ccc(O)cc1 [P41, p-Hydroxybenzoic acid]"
2,better pharmacokinetic behavior,"Cc1cc2c(cc1O)C(=O)c1ccccc1C2=O [P11, 2-Methyl-3-hydroxyanthraquinone]"

row,SMILES,pharmacokinetic behavior compared with other prototype compounds and metabolites (in words)
1,"CCCCCCCCCCCCCCCCCC(=O)OC[C@@H](O)COP(=O)([O-])OCC[N+](C)(C)C [P45, 1-O-Octadecanoyl-sn-glycero-3-phosphocholine]",better pharmacokinetic behavior
